Measured values: patent US8569336B2, “Compounds for the treatment of inflammatory disorders” (priority 2008, dated 2013)

What follows are compounds tested against T1, purified catalytic domain of recombinant human TACE (rhTACEc) (Homo sapiens, UniProt P78536, N452Q/S266A) (assay: TACE kinetic assay: cleavage of internally quenched peptide substrate TNF-FRET 2 (Ki)). Settings: Ki, TNF-FRET 2 substrate.
T1 construct: 6xHis (C); made in house; host or cells: baculovirus/Hi5 insect cells
Assay type: biochemical

T1 sequence (P78536 215-477 S266A/N452Q): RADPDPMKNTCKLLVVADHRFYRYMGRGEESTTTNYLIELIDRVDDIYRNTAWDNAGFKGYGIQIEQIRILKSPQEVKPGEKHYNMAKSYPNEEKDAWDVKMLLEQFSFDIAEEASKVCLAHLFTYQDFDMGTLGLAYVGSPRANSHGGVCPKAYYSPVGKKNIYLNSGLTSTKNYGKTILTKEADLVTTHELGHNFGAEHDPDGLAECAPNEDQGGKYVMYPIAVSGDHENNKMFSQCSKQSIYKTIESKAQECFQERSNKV

| SMILES | Ki [nM] |
| --- | --- |
| COc1ccc2c(c1)C(=O)N(C[C@@]1(c3cc4cc(C(N)=O)ccc4o3)NC(=O)NC1=O)C2 [Compound 2407] | 0.12 |
| COc1ccc2c(c1)C(=O)N(C[C@@]1(c3cc4cc(C5CNC(=O)C5)ccc4o3)NC(=O)NC1=O)C2 (stereo partly drawn) [Compound 2215] | 0.524 |

Same assay, conditions: TNF-FRET 2 substrate, read-out: Ki

| SMILES | Ki [nM] |
| --- | --- |
| COc1ccc2c(c1)C(=O)N(C[C@@]1(c3cc4cc(N5CC(=O)NS5(=O)=O)ccc4o3)NC(=O)NC1=O)C2 [Compound 2230] | 0.781 |
| COc1ccc2c(c1)C(=O)N(C[C@@]1(c3cc4ccc(C(=O)N(C)C)cc4o3)NC(=O)NC1=O)C2 [Compound 2414] | 0.41 |
| COc1ccc2c(c1)C(=O)N(C[C@@]1(c3cc4cc(C(=O)NCCN)c(F)cc4o3)NC(=O)NC1=O)C2 [Compound 1274] | 0.5 |
| COc1ccc2c(c1)C(=O)N(C[C@@]1(c3cc4c(C)nc(O)c(C(N)=O)c4o3)NC(=O)NC1=O)C2 [Compound 2435] | 1.14 |
| COc1ccc2c(c1)C(=O)N(C[C@@]1(c3cc4c(-c5ccccc5F)nccc4o3)NC(=O)NC1=O)C2 [Compound 2237] | 0.356 |
| COc1ccc2c(c1)C(=O)N(C[C@@]1(c3cc4nc(N5CCC(O)CC5)ccc4o3)NC(=O)NC1=O)C2 [Compound 2172] | 0.577 |
| COc1ccc2c(c1)C(=O)N(C[C@@]1(c3cc4cc(C(=O)NCCN(C)CCNS(C)(=O)=O)c(F)cc4o3)NC(=O)NC1=O)C2 [Compound 1281] | 0.83 |
| COc1ccc2c(c1)C(=O)N(C[C@@]1(c3ccc(-c4cnc(N5CCCC5)nc4)cc3)NC(=O)NC1=O)C2 [Compound 1503] | 2.4 |
| COc1ccc2c(c1)C(=O)N(C[C@@]1(c3cc4cc5c(cc4o3)[C@@H](N)CC5)NC(=O)NC1=O)C2 [Compound 2508] | 0.52 |
| COc1ccc2c(c1F)C(=O)N(C[C@@]1(c3cc4nc(C5CCNCC5)c(F)cc4o3)NC(=O)NC1=O)C2 [Compound 1323] | 0.08 |
| COc1ccc2c(c1)C(=O)N(C[C@@]1(c3cc4cc(C(=O)N(C)CCN(C)C)c(F)cc4o3)NC(=O)NC1=O)C2 [Compound 1275] | 0.88 |
| COc1ccc2c(c1)C(=O)N(C[C@@]1(c3cc4nc(N5CCNC(=O)C5)ccc4o3)NC(=O)NC1=O)C2 [Compound 2114] | 0.306 |
| COc1ccc2c(c1)C(=O)N(C[C@@]1(c3cc4cc(C5(C)NC(=O)NC5=O)cc(C)c4o3)NC(=O)NC1=O)C2 (stereo partly drawn) [Compound 2211] | 0.216 |
| COc1ccc2c(c1)C(=O)N(C[C@@]1(c3cc4cc(C(=O)NCCNC(C)C)c(F)cc4o3)NC(=O)NC1=O)C2 [Compound 1276] | 1.2 |
| COc1ccc2c(c1)C(=O)N(C[C@@]1(c3cc4cc(C5CCNCC5)ncc4o3)NC(=O)NC1=O)C2 [Compound 301] | 1.04 |
| COc1ccc2c(c1)C(=O)N(C[C@@]1(c3cc4cncc(Br)c4o3)NC(=O)NC1=O)C2 [Compound 2303] | 0.312 |

Results, then the compound that gave them:

| Ki [nM] | SMILES |
| --- | --- |
| 5.8 | C#Cc1c(O)ccc2c1C(=O)N(C[C@@]1(c3cc4ncccc4o3)NC(=O)NC1=O)C2 [Compound 1737] |
| 0.194 | COc1ccc2c(c1)C(=O)N(C[C@@]1(c3cc4nc(Nc5nccc(O)n5)ccc4o3)NC(=O)NC1=O)C2 [Compound 2144] |
| 0.67 | COc1ccc2c(c1)C(=O)N(C[C@@]1(c3cc4cnc(C#N)cc4o3)NC(=O)NC1=O)C2 [Compound 322] |
| 0.888 | COc1ccc2c(c1)C(=O)N(C[C@@]1(c3cc4nc(Nc5ccccn5)ccc4o3)NC(=O)NC1=O)C2 [Compound 2128] |
| 0.6 | COc1ccc2c(c1F)C(=O)N(C[C@@]1(c3cc4nc(N5CCNCC5)ccc4o3)NC(=O)NC1=O)C2 [Compound 1725] |
| 2.17 | COc1ccc2c(c1)C(=O)N(C[C@@]1(c3cc4nc(NS(C)(=O)=O)ccc4o3)NC(=O)NC1=O)C2 [Compound 1937] |
| 0.83 | COc1ccc2c(c1F)C(=O)N(C[C@@]1(c3cc4nc(N5CCCNCC5)ccc4o3)NC(=O)NC1=O)C2 [Compound 1712] |
| 0.57 | COc1ccc2c(c1)C(=O)N(C[C@@]1(c3cc4nc(-c5cc[nH]c5)ccc4o3)NC(=O)NC1=O)C2 [Compound 1900] |
| 1.49 | COc1ccc2c(c1F)C(=O)N(C[C@@]1(c3cc4nc(-c5ccc(N(C)C)nc5)ccc4o3)NC(=O)NC1=O)C2 [Compound 1726] |

Each compound was assayed on TNF-α production from human whole blood (assay: Inhibition of TNF-α production from human whole blood (hWBA), LPS stimulated, ELISA). Settings: Homo sapiens, 3.5 h, human whole blood diluted 1:1, LPS stimulated, 3.5 h, TNF-α by ELISA; read-out: hWBA (IC50).
Assay type: cell-based

| SMILES | IC50 [nM] |
| --- | --- |
| COc1ccc2c(c1)C(=O)N(C[C@@]1(c3cc4cc(N5CC(=O)NS5(=O)=O)ccc4o3)NC(=O)NC1=O)C2 [Compound 2230] | 4410 |
| COc1ccc2c(c1)C(=O)N(C[C@@]1(c3cc4cc(C(=O)NCCN)c(F)cc4o3)NC(=O)NC1=O)C2 [Compound 1274] | 142 |
| COc1ccc2c(c1)C(=O)N(C[C@@]1(c3cc4c(-c5ccccc5F)nccc4o3)NC(=O)NC1=O)C2 [Compound 2237] | 1150 |
| COc1ccc2c(c1)C(=O)N(C[C@@]1(c3cc4nc(N5CCC(O)CC5)ccc4o3)NC(=O)NC1=O)C2 [Compound 2172] | 210 |
| COc1ccc2c(c1)C(=O)N(C[C@@]1(c3cc4cc(C(=O)NCCN(C)CCNS(C)(=O)=O)c(F)cc4o3)NC(=O)NC1=O)C2 [Compound 1281] | 1100 |
| COc1ccc2c(c1)C(=O)N(C[C@@]1(c3cc4cc(C(=O)N(C)CCN(C)C)c(F)cc4o3)NC(=O)NC1=O)C2 [Compound 1275] | 441 |
| COc1ccc2c(c1)C(=O)N(C[C@@]1(c3cc4cc(C5CNC(=O)C5)ccc4o3)NC(=O)NC1=O)C2 (stereo partly drawn) [Compound 2215] | 381 |
| COc1ccc2c(c1)C(=O)N(C[C@@]1(c3cc4nc(N5CCNC(=O)C5)ccc4o3)NC(=O)NC1=O)C2 [Compound 2114] | 193 |
| COc1ccc2c(c1)C(=O)N(C[C@@]1(c3cc4cc(C5(C)NC(=O)NC5=O)cc(C)c4o3)NC(=O)NC1=O)C2 (stereo partly drawn) [Compound 2211] | 1550 |
| COc1ccc2c(c1)C(=O)N(C[C@@]1(c3cc4cc(C(=O)NCCNC(C)C)c(F)cc4o3)NC(=O)NC1=O)C2 [Compound 1276] | 251 |

The next lines start with the values.

| IC50 [nM] | SMILES |
| --- | --- |
| 267 | COc1ccc2c(c1)C(=O)N(C[C@@]1(c3cc4nc(Nc5nccc(O)n5)ccc4o3)NC(=O)NC1=O)C2 [Compound 2144] |
| 1910 | COc1ccc2c(c1)C(=O)N(C[C@@]1(c3cc4nc(Nc5ccccn5)ccc4o3)NC(=O)NC1=O)C2 [Compound 2128] |

Same assay, conditions: Homo sapiens, LPS-stimulated human whole blood, TNF-α by ELISA; read-out: hWBA (IC50)

| SMILES | IC50 [nM] |
| --- | --- |
| COc1ccc2c(c1)C(=O)N(C[C@@]1(c3ccc(-c4cnc(N5CCCC5)nc4)cc3)NC(=O)NC1=O)C2 [Compound 1503] | 7090 |
| COc1ccc2c(c1F)C(=O)N(C[C@@]1(c3cc4nc(C5CCNCC5)c(F)cc4o3)NC(=O)NC1=O)C2 [Compound 1323] | 140 |
| COc1ccc2c(c1)C(=O)N(C[C@@]1(c3cc4cc(C5CCNCC5)ncc4o3)NC(=O)NC1=O)C2 [Compound 301] | 162 |

Other lines, results leading:

| IC50 [nM] | SMILES |
| --- | --- |
| > 10000 | C#Cc1c(O)ccc2c1C(=O)N(C[C@@]1(c3cc4ncccc4o3)NC(=O)NC1=O)C2 [Compound 1737] |
| 759 | COc1ccc2c(c1)C(=O)N(C[C@@]1(c3cc4cnc(C#N)cc4o3)NC(=O)NC1=O)C2 [Compound 322] |
| 97 | COc1ccc2c(c1F)C(=O)N(C[C@@]1(c3cc4nc(N5CCNCC5)ccc4o3)NC(=O)NC1=O)C2 [Compound 1725] |
| 189 | COc1ccc2c(c1)C(=O)N(C[C@@]1(c3cc4nc(NS(C)(=O)=O)ccc4o3)NC(=O)NC1=O)C2 [Compound 1937] |
| 189 | COc1ccc2c(c1F)C(=O)N(C[C@@]1(c3cc4nc(N5CCCNCC5)ccc4o3)NC(=O)NC1=O)C2 [Compound 1712] |
| 459 | COc1ccc2c(c1)C(=O)N(C[C@@]1(c3cc4nc(-c5cc[nH]c5)ccc4o3)NC(=O)NC1=O)C2 [Compound 1900] |
| > 10000 | COc1ccc2c(c1F)C(=O)N(C[C@@]1(c3cc4nc(-c5ccc(N(C)C)nc5)ccc4o3)NC(=O)NC1=O)C2 [Compound 1726] |

Same assay, conditions: Homo sapiens, human whole blood diluted 1:1, LPS stimulated, TNF-α by ELISA; read-out: hWBA (IC50)

| IC50 [nM] | SMILES |
| --- | --- |
| 990 | COc1ccc2c(c1)C(=O)N(C[C@@]1(c3cc4ccc(C(=O)N(C)C)cc4o3)NC(=O)NC1=O)C2 [Compound 2414] |
| 504 | COc1ccc2c(c1)C(=O)N(C[C@@]1(c3cc4c(C)nc(O)c(C(N)=O)c4o3)NC(=O)NC1=O)C2 [Compound 2435] |
| 1020 | COc1ccc2c(c1)C(=O)N(C[C@@]1(c3cc4cc5c(cc4o3)[C@@H](N)CC5)NC(=O)NC1=O)C2 [Compound 2508] |
| 630 | COc1ccc2c(c1)C(=O)N(C[C@@]1(c3cc4cncc(Br)c4o3)NC(=O)NC1=O)C2 [Compound 2303] |

| SMILES | IC50 [nM] |
| --- | --- |
| COc1ccc2c(c1)C(=O)N(C[C@@]1(c3cc4cc(C(N)=O)ccc4o3)NC(=O)NC1=O)C2 [Compound 2407] | 162 |
